Measurements reported in patent US11999727B2 (Tango Therapeutics, Inc., priority 2020, dated 2024).

Tests used:
[1] = system: HAP1 MTAP-intact cell line; experiment: SDMA in-cell western assay, HAP1 MTAP-intact; type: cell-based; conditions: Homo sapiens, HAP1, SDMA in-cell western, HAP1 MTAP-intact; read-out: MTAP HAP1 intact IC50
Outline: (§1)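 Isogenic HAP1 pair: the MTAP-intact line expresses endogenous MTAP, and the deleted line is MTAP-null. Symmetric dimethylarginine was detected by in-cell western and IC50 values derived for each line.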

PRMT5 [2] = biological target: T1, PRMT5 (Homo sapiens, UniProt O14744); experiment: PRMT5 biochemical IC50 assay with no cofactor; conditions: PRMT5, no cofactor
T1 construct: purchased Viva (custom protein)
T1 sequence (O14744 whole entry): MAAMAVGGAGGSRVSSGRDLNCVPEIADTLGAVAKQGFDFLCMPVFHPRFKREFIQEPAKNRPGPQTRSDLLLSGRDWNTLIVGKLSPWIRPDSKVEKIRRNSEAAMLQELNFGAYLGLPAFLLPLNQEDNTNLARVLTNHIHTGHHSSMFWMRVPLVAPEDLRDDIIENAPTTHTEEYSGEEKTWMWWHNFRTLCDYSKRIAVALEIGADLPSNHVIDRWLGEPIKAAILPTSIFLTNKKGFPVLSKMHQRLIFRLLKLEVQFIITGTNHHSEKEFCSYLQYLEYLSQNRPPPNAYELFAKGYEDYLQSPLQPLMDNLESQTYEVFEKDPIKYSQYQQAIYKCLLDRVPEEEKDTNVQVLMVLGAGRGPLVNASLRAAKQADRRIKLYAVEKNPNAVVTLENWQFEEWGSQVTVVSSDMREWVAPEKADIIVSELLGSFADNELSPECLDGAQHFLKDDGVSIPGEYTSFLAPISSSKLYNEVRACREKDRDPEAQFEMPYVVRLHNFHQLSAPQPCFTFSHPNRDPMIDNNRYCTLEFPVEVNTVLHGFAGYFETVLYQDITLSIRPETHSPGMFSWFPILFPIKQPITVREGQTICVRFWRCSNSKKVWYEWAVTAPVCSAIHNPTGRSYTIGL
T1 sequence (Q9BQA1 whole entry partner): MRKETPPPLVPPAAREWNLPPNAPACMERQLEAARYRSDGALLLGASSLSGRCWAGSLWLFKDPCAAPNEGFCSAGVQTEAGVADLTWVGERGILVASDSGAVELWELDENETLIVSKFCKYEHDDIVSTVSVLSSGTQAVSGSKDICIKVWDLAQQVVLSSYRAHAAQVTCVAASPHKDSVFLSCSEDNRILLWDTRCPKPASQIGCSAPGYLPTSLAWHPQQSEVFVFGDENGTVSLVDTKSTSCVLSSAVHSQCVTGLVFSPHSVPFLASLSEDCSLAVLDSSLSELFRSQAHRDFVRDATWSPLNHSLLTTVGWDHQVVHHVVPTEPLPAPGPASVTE
Description: Table 1 indicates IC50 values (μM) against PRMT5 for exemplary compounds in the presence of SAM as cofactor, with no cofactor, and with MTA as cofactor, respectively (columns 4-6). […] Ki values can be calculated from the IC50 values as described in the Examples section. As detailed in the Examples section, for the assay performed in the presence of SAM, IC50=Ki×1.5 (Ki=IC50/1.5).

PRMT5 [3] = biological target: T1, PRMT5; experiment: PRMT5 biochemical IC50 assay with MTA as cofactor; conditions: PRMT5, MTA as cofactor; read-out: MTA IC50
PRMT5 [4] = biological target: T1, PRMT5; experiment: PRMT5 biochemical IC50 assay with SAM as cofactor; conditions: PRMT5, SAM as cofactor; read-out: SAM IC50
[5] = system: HAP1 MTAP-deleted cell line; experiment: SDMA in-cell western assay, HAP1 MTAP-deleted; type: cell-based; conditions: for IC50: Homo sapiens, HAP1, SDMA in-cell western, HAP1 MTAP-deleted; for MTAP intact/deleted ratio: SDMA in-cell western
Outline: as §1

[6] = system: HAP1 MTAP-deleted cell line; experiment: Viability assay, MTAP-deleted cell line; type: cell-based; conditions: Homo sapiens, read-out: HAP1 MTAP deleted viability
Description: Table 1 additionally indicates IC50 values in a viability assay for the MTAP-deleted cell line (column 10), indicating the effect of treatment with compound on cell survival.

[7] = read-out: HAP 1 MTAP deleted IC50
[8] = IC50 ratio HAP1 MTAP-intact / HAP1 MTAP-deleted
[9] = HAP1, viability IC50, MTAP-deleted cell line
[10] = read-out: HAP1 MTAP deleted IC50
[11] = HAP1, viability assay, MTAP-deleted cell line
[12] = IC50 ratio HAP1 MTAP-intact vs HAP1 MTAP-deleted

| Structure (SMILES) | IC50 [1] [nM] | IC50 (PRMT5 [2]; read-out: No Cofactor/rel IC50) [nM] | IC50 (PRMT5 [3]) [nM] | IC50 (PRMT5 [4]) [nM] | IC50 [5, 7] [nM] | IC50 [5, 10] [nM] | IC50 (PRMT5 [2]; read-out: No Cofactor/ rel IC50) [nM] | MTAP intact/deleted ratio [5, 8] | IC50 [6, 9] [nM] | IC50 [6, 11] [nM] | MTAP intact/deleted ratio [5, 12] | IC50 ([6]; HAP1, viability, HAP1 MTAP-deleted cell line) [nM] |
| --- | --- | --- | --- | --- | --- | --- | --- | --- | --- | --- | --- | --- |
| Cc1cc(NC(=O)C(=O)N2C[C@H](C)CC[C@H]2c2ccc(S(C)(=O)=O)cc2)cnc1C (racemic) [Compound 649, N-(5,6-dimethyl-3-pyridyl)-2-[(2R,5S)-5-methyl-2-(4-methylsulfonylphenyl)-1-piperidyl]-2-oxo-acetamide] | > 1000 | 50 to 500 | 50 to 500 | > 500 | > 1000 | – | – | B (an IC50 ratio greater than or equal to 3 fold but lower than 10 fold) | > 10000 | – | – | – |
| Cc1cc(NC(=O)C(=O)N2C[C@H](C)CC[C@H]2c2ccc3c(c2)C(=O)NC3)cnc1N (racemic) [Compound 582, N-(6-amino-5-methyl-3-pyridyl)-2-[(2R,5S)-5-methyl-2-(3-oxoisoindolin-5-yl)-1-piperidyl]-2-oxo-acetamide] | 100 to 1000 | 50 to 500 | 50 to 500 | 50 to 500 | < 100 | – | – | A (an IC50 ratio greater than or equal to 10 fold) | 1000 to 10000 | – | – | – |
| Cc1cc(NC(=O)C(=O)N2C[C@H](C)CC[C@H]2C2CCCC2)cnc1N (racemic) [Compound 190, N-(6-amino-5-methyl-3-pyridyl)-2-[(2S,5R)-2-cyclopentyl-5-methyl-1-piperidyl]-2-oxo-acetamide] | > 1000 | 50 to 500 | < 50 | 50 to 500 | – | 100 to 1000 | – | B (an IC50 ratio greater than or equal to 3 fold but lower than 10 fold) | – | 1000 to 10000 | – | – |

More lines, main results first:

| IC50 [1] [nM] | IC50 (PRMT5 [2]; read-out: No Cofactor/rel IC50) [nM] | IC50 (PRMT5 [3]) [nM] | IC50 (PRMT5 [4]) [nM] | IC50 [5, 7] [nM] | IC50 [5, 10] [nM] | IC50 (PRMT5 [2]; read-out: No Cofactor/ rel IC50) [nM] | Structure (SMILES) | MTAP intact/deleted ratio [5, 8] | IC50 [6, 9] [nM] | IC50 [6, 11] [nM] | MTAP intact/deleted ratio [5, 12] | IC50 ([6]; HAP1, viability, HAP1 MTAP-deleted cell line) [nM] |
| --- | --- | --- | --- | --- | --- | --- | --- | --- | --- | --- | --- | --- |
| > 1000 | 50 to 500 | < 50 | 50 to 500 | – | 100 to 1000 | – | C[C@@H]1CC[C@@H](c2ccc(CC3CC3)cc2)N(C(=O)C(=O)Nc2cncc(C(N)=O)c2)C1 (racemic) [Compound 273, rac-5-{2-[(2R,5S)-2-[4-(Cyclopropylmethyl)phenyl]-5-methylpiperidin-1-yl]-2-oxoacetamido}pyridine-3-carboxamide] | A (an IC50 ratio greater than or equal to 10 fold) | – | 1000 to 10000 | – | – |
| 100 to 1000 | 50 to 500 | < 50 | 50 to 500 | – | < 100 | – | CCc1cc(NC(=O)C(=O)N2C[C@@H](C)CC[C@@H]2c2ccc(N3CCN(C)CC3)cc2)cnc1N (racemic) [Compound 1209, rac-N-(6-Amino-5-ethyl-3-pyridyl)-2-[(2S,5R)-5-methyl-2-[4-(4-methylpiperazin-1-yl)phenyl]-1-piperidyl]-2-oxo-acetamide] | – | – | < 1000 | A (an IC50 ratio greater than or equal to 10 fold) | – |
| 100 to 1000 | < 50 | < 50 | 50 to 500 | – | < 100 | – | COc1ncc(NC(=O)C(=O)N2C[C@@H](C)CC[C@@H]2c2ccc3nn([C@@H]4CCN(C)C4)cc3c2)cc1C(N)=O (racemic) [Compound 1141, 2-Methoxy-5-[[2-oxo-2-[rac-(2R,5S)-5-methyl-2-[2-[rac-(3R)-1-methylpyrrolidin-3-yl]indazol-5-yl]-1-piperidyl]acetyl]amino]pyridine-3-carboxamide] | – | – | < 1000 | A (an IC50 ratio greater than or equal to 10 fold) | – |
| < 100 | – | < 50 | < 50 | < 100 | – | < 50 | COc1ncc(NC(=O)C(=O)N2C[C@@H](C)CC[C@@H]2c2ccc3cn(C4CCN(C)CC4)nc3c2)cc1C(N)=O (racemic) [Compound 1299, 2-Methoxy-5-[[2-oxo-2-[rac-(2R,5S)-5-methyl-2-[2-(1-methyl-4-piperidyl)indazol-6-yl]-1-piperidyl]acetyl]amino]pyridine-3-carboxamide] | B (an IC50 ratio greater than or equal to 3 fold but lower than 10 fold) | – | – | – | < 1000 |
